Reference: patent US20020058701A1 (priority 2000, published 2002)

Experiments:
[1] = Body weights and food consumption in diabetic db/db mice; type: in vivo
Procedure: (§1) Genetically altered obese diabetic mice (designated C57BL/ks diabetic or db/db) were purchased from the Jackson Laboratory (Bar Harbor, Me., USA), and served as experimental animals. Male animals between the ages of 8-9 weeks were employed in the studies described here. Animals were housed (4 mice/cage) under standard laboratory conditions at 22° C. and 50% relative humidity, and were maintained on a diet of Purina rodent chow and water ad libitum. Prior to treatment, blood was collected from the tail vein of each animal. Mice that had plasma glucose levels between 350 and 600 mg/dL were used. Each treatment group consisted of eight mice that were distributed so that the mean glucose levels were equivalent in each group at the start of the study. Db/db mice received, orally by gavage: the experimental compound administered at 62.5, 125, or 250 mg/kg/day (unless otherwise noted), or metformin administered at […] for 1-3 days. Test compounds were delivered in a liquid vehicle containing 0.25% (w/v) carboxymethyl-cellulose, 1% (v/v) Tween […] (polyoxyethylene sorbitan monosterate), and up to 10% (v/v) dimethyl sulfoxide (DMSO) in a volume of 10 ml/kg. Blood was sampled from the tail vein at three hours, six, eight, twenty-four, and thirty hours post-administration (the first administration) of the particular compound in non-fasted conditions. Experiments 3-5 also sampled blood at fifty-four hours post-administration (the first administration) of the particular compound in non-fasted conditions. Blood samples were analyzed for plasma glucose levels. Individual body weights and mean food consumption (each cage) were also measured daily.

[2] = tested on: C57BL/ks diabetic (db/db) mice; test: Glucose-lowering (plasma glucose) in diabetic db/db mice; type: in vivo; conditions: for Change in Glucose (mg/dL) 6 H: 6 h after initial dose; for Change in Glucose (mg/dL) 30 H: 30 h after initial dose; for Change in Glucose (mg/dL) 54 H: 54 h after initial dose
Procedure: as §1
The isolated test substances were prepared as described previously (vide supra). Metformin (1,1-dimethylbiguanide), carboxymethyl cellulose and Tween 60 were purchased from Sigma Chemical Co. (St. Louis, Mo., USA; catalog #'s D-5035, C-4888, and p-1629, respectively). Plasma glucose levels were determined colorimetrically using glucose oxidase (Sigma Chemical Co.; Sigma catalog #315). Significant differences between groups (comparing compound-treated to vehicle-treated) were evaluated using analysis of variance and Fisher's post-hoc test.
Vehicle, metformin (250 mg/kg) or enriched extract (1000 mg/kg) were given to db/db mice at 0(initial), 8, 24, 32, 48, 56, 72, 80, and 96 hours post initial dose.
Plasma glucose levels were measured at baseline, 3 (day 1), 51 hours (Day 3), and 99 hours (Day 5).

COc1cc(O)cc(CCc2ccccc2)c1 [Compound G]
Food Intake (g/mouse) 0-48 h ([1]; 125 mg/kg, vehicle 6.0, Table 9): 5.9 g/mouse | Body weight (g/mouse) (mean) 0 h ([1]; 125 mg/kg, vehicle 39.8 ± 0.7, Table 9): 39.0 ± 1.1 g/mouse | Body weight (g/mouse) (mean) 48 hr ([1]; 125 mg/kg, vehicle 39.7 ± 0.6, Table 9): 39.0 ± 1.1 g/mouse | adverse effect on food intake or body weight (in words) ([1]; 125 mg/kg, Tables 9 and 11): absence of any significantly adverse effect | Change in Glucose (mg/dL) 6 H ([2]; 125 mg/kg q.d. oral at 0, 24, 48 h, vehicle 15.5, Table 8): 35.0 mg/dL | Change in Glucose (mg/dL) 30 H ([2]; 125 mg/kg q.d. oral at 0, 24, 48 h, vehicle 56.6, Table 8): -12.2 mg/dL | Change in Glucose (mg/dL) 54 H ([2]; 125 mg/kg q.d. oral at 0, 24, 48 h, vehicle 88.6, Table 8): 12.0 mg/dL | mean glucose levels rose from the baseline values ([2]; Table 8, 125 mg/kg, fifty-four hours after initial dosing, value = size of rise): 12.0 mg/dL | mean glucose levels declined from the baseline value ([2]; Table 8, printed dose 250 mg/kg, thirty hours after initial dosing, value = size of decline): 74.6 mg/dL | reduction in plasma glucose relative to vehicle (control) (in words) ([2]; oral, dose level of 125 mg/kg, Tables 8 and 10): statistically significant reduction

CN(C)C(=N)NC(=N)N [Metformin, 1,1-dimethylbiguanide, reference compound]
Food Intake (g/mouse) 0-48 h ([1]; 250 mg/kg, vehicle 6.0, Table 9): 5.4 g/mouse | Food Intake (g/mouse) 0-48 h ([1]; 250 mg/kg, vehicle 6.3, Tables 5 and 7): 5.1 g/mouse | Body weight (g/mouse) (mean) 0 h ([1]; 250 mg/kg, vehicle 39.2 ± 0.5, Tables 5 and 7): 37.3 ± 0.7 g/mouse | Body weight (g/mouse) (mean) 0 h ([1]; 250 mg/kg, vehicle 39.8 ± 0.7, Table 9): 40.6 ± 0.4 g/mouse | Body weight (g/mouse) (mean) 48 hr ([1]; 250 mg/kg, vehicle 39.5 ± 0.5, Tables 5 and 7): 37.2 ± 0.6 g/mouse | Body weight (g/mouse) (mean) 48 hr ([1]; 250 mg/kg, vehicle 39.7 ± 0.6, Table 9): 40.5 ± 0.4 g/mouse | Change in Glucose (mg/dL) 6 H ([2]; 250 mg/kg q.d. oral at 0, 24, 48 h, vehicle 35.9, Tables 4 and 6): -180.4 mg/dL | Change in Glucose (mg/dL) 30 H ([2]; 250 mg/kg q.d. oral at 0, 24, 48 h, vehicle 79.6, Tables 4 and 6): -112.4 mg/dL | Change in Glucose (mg/dL) 54 H ([2]; 250 mg/kg q.d. oral at 0, 24, 48 h, vehicle 60.3, Tables 4 and 6): -41.3 mg/dL | glucose levels rose ([2]; Table 8, metformin 250 mg/kg, fifty-four hours after the initial dose, value = size of rise): 6.8 mg/dL | lowered plasma glucose levels by ([2]; Table 8, metformin 250 mg/kg, six hours after the initial dose, value = size of decline): approximately 113.6 mg/dL | lowered plasma glucose levels by ([2]; Table 8, metformin 250 mg/kg, thirty hours after the initial dose, value = size of decline): ~25.1 mg/dL | mean glucose levels declined from the baseline values ([2]; Tables 4 and 6, 250 mg/kg, fifty-four hours after initial dosing, value = size of decline): 41.3 mg/dL | mean glucose levels declined (lowered) from the baseline value ([2]; Tables 4 and 6, 250 mg/kg, six hours after initial dosing, value = size of decline): approximately 180.4 mg/dL | mean glucose levels declined (lowered) from the baseline values ([2]; Tables 4 and 6, 250 mg/kg, thirty hours after initial dosing, value = size of decline): ~112.4 mg/dL | Change in Glucose (mg/dL) 6 H ([2]; metformin 250 mg/kg q.d. oral, vehicle 15.5, Table 8): -113.6 mg/dL | Change in Glucose (mg/dL) 30 H ([2]; metformin 250 mg/kg q.d. oral, vehicle 56.6, Table 8): -25.1 mg/dL | Change in Glucose (mg/dL) 54 H ([2]; metformin 250 mg/kg q.d. oral, vehicle 88.6, Table 8): 6.8 mg/dL | Day 1 glucose ([2]; metformin 250 mg/kg, same schedule as extracts, 3 h post initial dose, vehicle −80.9): -180.5 mg/dL | Day 3 glucose ([2]; metformin 250 mg/kg, same schedule as extracts, 51 h post initial dose, vehicle −77.1): -207.5 mg/dL | Day 5 glucose ([2]; metformin 250 mg/kg, same schedule as extracts, 99 h post initial dose, vehicle +102.1): -86.4 mg/dL
